Literature values as cited in US20250228877A1, “MANAGEMENT OF SKIN AILMENTS” (priority 2021, published 2025).

Columns and labels:
[1] = tested on: human umbilical vein endothelial cell (HUVEC) tube formation; conditions: after 24 hours; reconstituted extracellular matrix
[2] = 7 days following treatment
[3] = 1-4% IP-6 in drinking water; measured by gadolinium uptake

O=P(O)(O)O[C@H]1[C@H](OP(=O)(O)O)[C@@H](OP(=O)(O)O)[C@H](OP(=O)(O)O)[C@@H](OP(=O)(O)O)[C@H]1OP(=O)(O)O [IP-6, myo-inositol hexakisphosphate]
number of capillaries [1]: reduction | vascularity (number of blood vessel formation) [2]: inhibited vascularity | angiogenesis evaluated by micro-vessel density (MVD) [3]: inhibited angiogenesis
